Assay results: patent US20250041377A1, “PHARMACEUTICAL USE” (ENLITISA (SHANGHAI) PHARMACEUTICAL CO., LTD., priority 2018, published 2025)
Where a name gives a salt, the structure may show the parent alone.

Columns and labels:
[1] = test system: bleomycin-induced pulmonary fibrosis; experiment: Idiopathic pulmonary fibrosis (IPF) model; type: in vivo, Sprague Dawley rats; conditions: Day 29
Description: Experimental animals and grouping: 40 adult male Sprague Dawley rats, after 7 days of adaptive feeding, were divided into 4 groups: sham-operation group (Sham), IPF model group (no treatment; Model), test group (Compound B) and positive control group (Positive Control).
The test were administered Compound B, at a dose of 130 μg/rat, which was introduced by aerosolized inhalation. Oral administration of pirfenidone (Etuary®, Beijing Continent Pharmaceutical Co., Ltd., Beijing, China) as a 120 mg/kg single-bolus dose served as the positive control.
A pulmonary fibrosis model was established by intratracheal instillation of bleomycin. The rats were anaesthetised and placed on an operating table in the supine position, to expose the trachea. Bleomycin (5 mg/kg) saline solution was injected into the trachea through the gap between the tracheal cartilage rings. The sham-operation group were given an equal volume of normal saline. Shortly after administration, the rats were lifted vertically and were rotated, in order to evenly disperse the drug. Once the rats had recovered, after approximately 5 days, they were administrated the different drugs according to the plan for 28 days, consecutively.
The exhaust volume of the atomizing device was 0.15 mL per minute. The inhalation time for each rat was 1 minute.
At Day 29 following drug administration, rats were anesthetized by i.p. injection of chloral hydrate. After orbital blood collection, the rats were sacrificed. The thoracic cavity was quickly opened and the lung was collected for further analysis. The lung wet weight was measured, and the lung coefficient was calculated (lung wet weight/rat weight×1000). The tissue was stored in refrigerator at −80° C. for further use.
A piece of lung tissue was accurately weighed, and 9 times the weight of saline was added. Then, the tissue was homogenized and centrifuged for 10 minutes at 3000 rpm. The homogenate was used to detect the expression of the transformation growth factor (TGF-β1), tumor necrosis factor-α (TNF-α) and alpha-smooth muscle actin (α-SMA). Standard ELISA methods were used for the detection. The contents of malonaldehyde (MDA) and the activity of superoxide dismutase (SOD) in lung tissue were also detected.

[2] = test system: ammonia induced cough; experiment: Antitussive experiment, ammonia induced cough method; type: in vivo, ICR mice
Description: 36 ICR mice were randomly divided into 3 groups according to their body weight, labelled a CMC-Na (Negative) control group, a dextromethorphan hydrobromide (Positive) control group and a Compound B (B) group. Each group contained 12 mice, with 6 males and 6 females in each.
Compound B was administered via atomization inhalation using a YLS-8A Multifunctional cough and sputum inducing device (Jinan Yiyan Science and Technology Co., Ltd.) (0.15 ml/min) for 1 minute, once daily for 5 days. And the positive control drug was administered once daily by intragastric administration at 10 mg/kg for 5 days.
The mice were placed in an inverted beaker 1, 2, and 4 hours after the last drug administration. 1 mL of aqueous ammonia (25.0 to 28.0%) was placed on top of a boiling water bath and was evaporated into the beaker.
The time for mice to receive ammonia exposure was determined by a method characterized by analyzing data immediately after one test or a batch of tests. The results of the previous analysis determined how to conduct the next test or batch of tests.
The difference between the logarithmic value of two adjacent time periods was 0.1.
The number of coughs within 1 minute was detected using a stethoscope. If a mouse coughed three or more times over one minute, this was labelled as called ‘cough’, and less than three times in one minute was labelled ‘cough free’.
The EDT50 was defined as the ammonia stimulating time at which half mice developed a “cough”, calculated by the equation: […]
(c equals the sum of r and x, r is the number of animals in each stimulating time group, x is the logarithm of stimulation time and n was the number of animals in each group). lg is a base 10 logarithmic value.
In Table 15, R is the EDT50 in treatment group divided by the EDT50 in the Control group expressed as a percentage.

[3] = lung tissue homogenate, Compound B 130 μg/rat aerosolized inhalation, pirfenidone gavage, 28 days

Compound	TGF-β1 [1, 3] [ng/mg protein]	TNF-α [1, 3] [pg/mg protein]	α-SMA [1, 3] [pg/mg protein]	MDA ([1]; lung tissue) [U/mg protein]	SOD ([1]; lung tissue) [U/mg protein]	R ([2]; 1 hour after admin., EDT50 in treatment group divided by EDT50 in Control group) [%]	EDT50 ([2]; 1 hour after last administration, B 195 μg/mouse atomization inhalation, Positive 10 mg/kg intragastric, once daily 5 days) [s]	R ([2]; 2 hours after admin., EDT50 treatment/Control) [%]	EDT50 ([2]; 2 hours after last administration) [s]	R ([2]; 4 hours after admin., EDT50 treatment/Control) [%]	EDT50 ([2]; 4 hours after last administration) [s]
Cc1ccc(=O)n(-c2ccccc2)c1 [Positive Control, pirfenidone, reference compound]	0.41 ± 0.03	208.41 ± 17.73	10.98 ± 0.93	0.24 ± 0.05	48.59 ± 2.36	–	–	–	–	–	–
COc1ccc2c(c1)[C@]13CCCC[C@@H]1[C@H](C2)N(C)CC3 [Positive, dextromethorphan hydrobromide, reference compound]	–	–	–	–	–	241.7	50.1	207.3	44.7	184.8	41.4
